From ChEMBL document CHEMBL3352074, “Novel ROCK inhibitors for the treatment of pulmonary arterial hypertension” (Bioorg Med Chem Lett, 2014) come the findings set out here.

Data set [1] is described as follows: Drug concentration in Balb/C mouse lung at 1 mg/kg, iv after 3 hrs. To be noted: read-out: Drug uptake. Also noted: dose 1 mg/kg, route intravenous. In kind it is ADME, organism-based.
Data set [2] in a line: AUC (0 to 6 hrs) in mouse plasma at 1 mg/kg, iv. Also on record: time < 6 hr, dose 1 mg/kg, route intravenous. It counts as ADME, organism-based.
A short description of data set [3]: Drug concentration in Balb/C mouse lung at 1 mg/kg, iv after 0.5 hrs. The following applies: read-out: Drug uptake. It counts as ADME, organism-based. Also on record: dose 1 mg/kg, route intravenous.
A short description of data set [4]: Plasma concentration in Balb/C mouse at 1 mg/kg, it after 0.5 hrs. In kind it is ADME, organism-based. Also on record: dose 1 mg/kg, route endotracheal. The following applies: inhaled or intranasal.
Data set [5] in a line: Drug concentration in Balb/C mouse lung at 1 mg/kg, it after 0.5 hrs. It counts as ADME, organism-based. The following applies: inhaled or intranasal, read-out: Drug uptake. Also on record: dose 1 mg/kg, route endotracheal.
Data set [6] in a line: Plasma concentration in Balb/C mouse at 1 mg/kg, iv after 0.5 hrs. It counts as ADME, organism-based. Also noted: dose 1 mg/kg, route intravenous.
The nature of data set [7]: Plasma concentration in Balb/C mouse at 1 mg/kg, it after 3 hrs. In kind it is ADME, organism-based. The following applies: inhaled or intranasal. Also noted: dose 1 mg/kg, route endotracheal.
A short description of data set [8]: AUC (0 to 6 hrs) in mouse lung at 1 mg/kg, iv. It counts as ADME, organism-based. Also noted: time < 6 hr, dose 1 mg/kg, route intravenous.
A short description of data set [9]: Drug concentration in Balb/C mouse lung at 1 mg/kg, it after 3 hrs. In kind it is ADME, organism-based. Also on record: dose 1 mg/kg, route endotracheal. To be noted: inhaled or intranasal, read-out: Drug uptake.
Data set [10] can be described thus: AUC (0 to 6 hrs) in mouse lung at 1 mg/kg, it. It counts as ADME, organism-based. Also noted: time < 6 hr, dose 1 mg/kg, route endotracheal. To be noted: inhaled or intranasal.
Data set [11] is described as follows: Plasma concentration in Balb/C mouse at 1 mg/kg, iv after 3 hrs. Also on record: dose 1 mg/kg, route intravenous. It counts as ADME, organism-based.
A short description of data set [12]: AUC (0 to 6 hrs) in mouse plasma at 1 mg/kg, it. It counts as ADME, organism-based. Also noted: time < 6 hr, dose 1 mg/kg, route endotracheal. The following applies: inhaled or intranasal.
Data set [13] can be described thus: Apparent permeability from apical to basolateral side across human Caco2 cells. The following applies: Caco-2. It counts as ADME, cell-based. A general note: Caco-2 monolayers are a common model of the intestinal barrier.

Each structure is given as a SMILES string.

By AUC(0-t) is commonly meant exposure summed from dosing to a finite time, without extrapolation to infinity. Lower therefore signals less exposure. For `c1cc2c(N3CCNCC3)nc(-c3ccc4[nH]ncc4c3)nc2cn1`, the concentration at 3 h in data set [1] is 200 nM; in data set [7] it was 20 nM; in [9], 1900 nM; in data set [11] it was 10 nM. The AUC(0-t) at 6 h in [2] came out at 0.372 µM·h; in data set [8] it was 3.01 µM·h; in data set [10] it was 16 µM·h; in [12], 0.302 µM·h. The concentration at 0.5 h in data set [3] is 2000 nM; in data set [4], 500 nM; in data set [5] it was 32500 nM; in [6] it was 400 nM.
The term Papp A→B denotes how fast a substance crosses the layer from the apical side. Consider `c1ccc2c(N3CCNCC3)nc(-c3ccc4[nH]ncc4c3)nc2c1`, for which the AUC(0-t) at 6 h in data set [2] came to 0.642 µM·h; in data set [8] it was 5.92 µM·h; in data set [10], 9.31 µM·h; in data set [12] it was 0.665 µM·h. Besides, in [13], the Papp A→B is 5.65 ×10⁻⁶ cm/s.
